Literature values, collected in US12472158B2, “Methods of treating trigeminal nerve pain” (Vanderbilt University, priority 2019, dated 2025).

Key:
goat model = conditions: for duration of antinociceptive effect: intrathecal
α-2A adrenergic receptor = biological target: T1, α-2A adrenergic receptor (Homo sapiens, UniProt P08913); conditions: α-2A vs α-2B and α-2C
T1 sequence (P08913 1-465): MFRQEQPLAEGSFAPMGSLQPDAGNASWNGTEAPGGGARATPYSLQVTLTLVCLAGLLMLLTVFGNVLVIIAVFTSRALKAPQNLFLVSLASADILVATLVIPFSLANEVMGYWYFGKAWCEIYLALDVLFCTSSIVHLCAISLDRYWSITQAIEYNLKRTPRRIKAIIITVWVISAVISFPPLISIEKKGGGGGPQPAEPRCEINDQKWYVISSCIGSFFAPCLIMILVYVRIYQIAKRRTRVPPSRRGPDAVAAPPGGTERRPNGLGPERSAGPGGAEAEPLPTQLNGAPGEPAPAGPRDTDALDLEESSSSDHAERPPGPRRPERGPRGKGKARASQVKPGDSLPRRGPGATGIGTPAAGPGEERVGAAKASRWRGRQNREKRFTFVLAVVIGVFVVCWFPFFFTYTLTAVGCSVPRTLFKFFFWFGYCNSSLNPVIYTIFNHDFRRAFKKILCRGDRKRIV

[1] = among the alpha-2 agonists
subarachnoid space = conditions: 75 mcg in 15 μl saline, intrathecal route
[2] = test system: contraction of the nictitating membrane in cats; conditions: i.v., dose giving 50% reduction of the nictitating membrane contraction
[3] = lidocaine alone (active control group); medical literature and expert opinion

Clc1cccc(Cl)c1N=C1NCCN1 [clonidine]
time for anti-nociceptive effect to decline to baseline (rat model; rat model, injection 50 mcg): ≤ 4 h
duration of antinociceptive effect (goat model): 5 h

Cl.N=C(N)NC(=O)Cc1c(Cl)cccc1Cl [guanfacine, N-amidino-2-(2,6-dichlorophenyl) acetamide]
rate of elimination from spinal cord tissue (rat model; compared to clonidine): lower rate of elimination
duration of anti-nociceptive effect (rat model; rat model, intrathecal, both 25 mcg and 50 mcg): greater than 18 h
elimination half-life (in vivo): ~17 h
oral bioavailability (oral): around 80%
renal excretion (share of elimination): ~50%
affinity for α-2A adrenergic receptor compared to α-2B and α-2C adrenergic receptor (α-2A adrenergic receptor): 15- to 20 fold
rate of sedation [1]: lowest rate of sedation
toxicity in the subarachnoid space (subarachnoid space): nontoxic
elimination from spinal cord tissue (goat model; compared with clonidine): slower elimination
duration of antinociceptive effect (goat model): 8 h
Reduction of the neck sympathicus stimulus ED50 [2]: 0.3 mg/kg

CCN(CC)CC(=O)Nc1c(C)cccc1C [lidocaine]
mean duration of pain relief [3]: approximately 140 minutes

Cc1cccc(C)c1CC(=O)NC(=N)N [2,6-dimethylphenyl-acetyl-guanidine]
Reduction of the neck sympathicus stimulus ED50 [2]: 1.0 mg/kg
